Source: ChEMBL document CHEMBL1743141, “Membrane transporters in drug development” (Nat Rev Drug Discov, 2010)

Assays:
Format in all cases: ADME
[1] = molecular target: T1, Solute carrier family 15 member 2 (Homo sapiens, UniProt Q16348); assay: Inhibitors of transporters of clinical importance in the absorption and disposition of drugs, PEPT2
T1 sequence (Q16348 whole entry): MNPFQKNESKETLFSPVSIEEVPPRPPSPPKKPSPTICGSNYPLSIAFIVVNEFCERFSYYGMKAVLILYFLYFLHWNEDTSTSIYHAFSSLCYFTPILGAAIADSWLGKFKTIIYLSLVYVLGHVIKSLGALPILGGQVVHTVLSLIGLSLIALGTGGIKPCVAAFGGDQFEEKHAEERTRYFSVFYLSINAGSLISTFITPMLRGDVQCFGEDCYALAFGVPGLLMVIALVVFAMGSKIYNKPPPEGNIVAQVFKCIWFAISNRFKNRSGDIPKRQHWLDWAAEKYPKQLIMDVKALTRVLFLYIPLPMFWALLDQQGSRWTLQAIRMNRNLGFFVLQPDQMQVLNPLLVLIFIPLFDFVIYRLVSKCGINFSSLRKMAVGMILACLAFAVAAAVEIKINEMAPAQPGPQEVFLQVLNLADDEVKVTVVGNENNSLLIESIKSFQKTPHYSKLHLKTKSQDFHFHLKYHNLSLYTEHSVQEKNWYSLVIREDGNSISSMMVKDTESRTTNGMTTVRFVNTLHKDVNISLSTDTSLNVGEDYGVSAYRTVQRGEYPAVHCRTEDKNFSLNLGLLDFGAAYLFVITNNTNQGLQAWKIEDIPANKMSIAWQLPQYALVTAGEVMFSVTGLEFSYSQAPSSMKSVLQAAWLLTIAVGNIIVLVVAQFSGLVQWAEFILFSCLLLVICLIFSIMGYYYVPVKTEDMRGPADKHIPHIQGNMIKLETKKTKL

[2] = molecular target: T2, ATP-binding cassette sub-family C member 4 (Homo sapiens, UniProt O15439); assay: Inhibitors of transporters of clinical importance in the absorption and disposition of drugs, MRP4
T2 sequence (O15439 whole entry): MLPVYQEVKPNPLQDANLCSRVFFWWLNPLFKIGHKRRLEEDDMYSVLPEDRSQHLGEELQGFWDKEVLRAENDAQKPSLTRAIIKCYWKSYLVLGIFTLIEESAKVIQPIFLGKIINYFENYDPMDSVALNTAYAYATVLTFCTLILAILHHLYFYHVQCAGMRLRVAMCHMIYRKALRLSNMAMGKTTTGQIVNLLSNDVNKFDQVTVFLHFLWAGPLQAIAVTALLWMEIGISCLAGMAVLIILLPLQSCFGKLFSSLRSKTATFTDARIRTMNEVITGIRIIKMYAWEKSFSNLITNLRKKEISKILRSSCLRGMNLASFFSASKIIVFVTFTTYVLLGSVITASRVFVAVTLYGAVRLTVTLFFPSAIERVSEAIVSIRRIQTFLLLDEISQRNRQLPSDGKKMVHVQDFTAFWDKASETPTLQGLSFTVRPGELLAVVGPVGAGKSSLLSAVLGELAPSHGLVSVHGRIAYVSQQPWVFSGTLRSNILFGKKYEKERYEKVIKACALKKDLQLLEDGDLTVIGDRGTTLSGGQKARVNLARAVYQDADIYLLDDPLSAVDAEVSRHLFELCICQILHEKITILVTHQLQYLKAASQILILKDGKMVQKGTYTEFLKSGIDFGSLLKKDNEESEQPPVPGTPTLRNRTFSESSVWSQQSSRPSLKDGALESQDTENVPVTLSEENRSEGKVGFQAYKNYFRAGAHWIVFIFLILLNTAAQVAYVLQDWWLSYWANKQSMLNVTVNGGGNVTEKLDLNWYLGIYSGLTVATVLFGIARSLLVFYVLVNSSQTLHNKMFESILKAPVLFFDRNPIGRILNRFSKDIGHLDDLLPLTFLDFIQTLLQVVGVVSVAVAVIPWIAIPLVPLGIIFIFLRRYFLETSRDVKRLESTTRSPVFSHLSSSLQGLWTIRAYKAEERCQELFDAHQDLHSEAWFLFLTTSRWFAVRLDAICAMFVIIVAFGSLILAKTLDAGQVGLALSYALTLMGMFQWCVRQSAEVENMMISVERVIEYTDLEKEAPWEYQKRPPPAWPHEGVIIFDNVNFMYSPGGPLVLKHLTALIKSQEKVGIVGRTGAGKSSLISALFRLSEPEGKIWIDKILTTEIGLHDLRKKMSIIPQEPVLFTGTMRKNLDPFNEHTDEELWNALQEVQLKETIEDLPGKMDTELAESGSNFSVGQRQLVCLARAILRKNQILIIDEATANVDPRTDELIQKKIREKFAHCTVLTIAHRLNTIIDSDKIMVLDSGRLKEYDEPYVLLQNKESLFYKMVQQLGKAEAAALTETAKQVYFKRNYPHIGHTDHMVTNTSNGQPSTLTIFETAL

[3] = molecular target: T3, Organic anion transporter 3 (Homo sapiens, UniProt Q8TCC7); assay: Inhibitors of transporters of clinical importance in the absorption and disposition of drugs, OAT3
T3 sequence (Q8TCC7 whole entry): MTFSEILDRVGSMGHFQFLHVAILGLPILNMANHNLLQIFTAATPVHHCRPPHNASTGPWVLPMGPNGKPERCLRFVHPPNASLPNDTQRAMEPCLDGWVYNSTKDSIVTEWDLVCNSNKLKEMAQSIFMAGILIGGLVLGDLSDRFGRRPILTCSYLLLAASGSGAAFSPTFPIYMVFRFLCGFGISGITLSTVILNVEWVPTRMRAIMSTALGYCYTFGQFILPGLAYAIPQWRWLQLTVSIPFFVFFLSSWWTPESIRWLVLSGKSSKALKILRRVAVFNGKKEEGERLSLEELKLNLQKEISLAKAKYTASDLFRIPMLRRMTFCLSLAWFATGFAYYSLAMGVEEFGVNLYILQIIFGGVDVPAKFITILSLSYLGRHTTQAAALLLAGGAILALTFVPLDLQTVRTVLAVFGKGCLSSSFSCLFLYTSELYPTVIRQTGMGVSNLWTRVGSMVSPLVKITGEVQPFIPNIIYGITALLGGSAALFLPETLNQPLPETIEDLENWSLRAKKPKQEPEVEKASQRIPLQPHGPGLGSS

[4] = molecular target: T4, Solute carrier organic anion transporter family member 1B3 (Homo sapiens, UniProt Q9NPD5); assay: Inhibitors of transporters of clinical importance in the absorption and disposition of drugs, OATP1B3
T4 sequence (Q9NPD5 whole entry): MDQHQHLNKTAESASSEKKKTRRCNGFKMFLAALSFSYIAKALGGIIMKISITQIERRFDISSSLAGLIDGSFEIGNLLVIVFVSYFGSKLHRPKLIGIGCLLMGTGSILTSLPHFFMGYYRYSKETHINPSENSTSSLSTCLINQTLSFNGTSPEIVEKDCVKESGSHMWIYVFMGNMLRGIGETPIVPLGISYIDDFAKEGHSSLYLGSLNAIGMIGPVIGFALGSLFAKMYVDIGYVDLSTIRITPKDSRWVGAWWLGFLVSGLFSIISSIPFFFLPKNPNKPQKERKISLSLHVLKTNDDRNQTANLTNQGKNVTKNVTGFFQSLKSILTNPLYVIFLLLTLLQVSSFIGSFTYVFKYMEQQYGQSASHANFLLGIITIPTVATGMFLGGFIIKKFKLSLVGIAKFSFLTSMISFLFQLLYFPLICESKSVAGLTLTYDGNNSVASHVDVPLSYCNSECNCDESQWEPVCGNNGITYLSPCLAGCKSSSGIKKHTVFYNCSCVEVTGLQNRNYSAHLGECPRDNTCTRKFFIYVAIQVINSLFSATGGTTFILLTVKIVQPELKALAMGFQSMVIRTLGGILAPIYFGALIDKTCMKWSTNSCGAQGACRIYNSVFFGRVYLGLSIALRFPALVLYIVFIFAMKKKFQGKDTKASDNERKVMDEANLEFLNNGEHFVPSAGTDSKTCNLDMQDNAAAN

[5] = molecular target: T5, Solute carrier organic anion transporter family member 1B1 (Homo sapiens, UniProt Q9Y6L6); assay: Inhibitors of transporters of clinical importance in the absorption and disposition of drugs, OATP1B1
T5 sequence (Q9Y6L6 whole entry): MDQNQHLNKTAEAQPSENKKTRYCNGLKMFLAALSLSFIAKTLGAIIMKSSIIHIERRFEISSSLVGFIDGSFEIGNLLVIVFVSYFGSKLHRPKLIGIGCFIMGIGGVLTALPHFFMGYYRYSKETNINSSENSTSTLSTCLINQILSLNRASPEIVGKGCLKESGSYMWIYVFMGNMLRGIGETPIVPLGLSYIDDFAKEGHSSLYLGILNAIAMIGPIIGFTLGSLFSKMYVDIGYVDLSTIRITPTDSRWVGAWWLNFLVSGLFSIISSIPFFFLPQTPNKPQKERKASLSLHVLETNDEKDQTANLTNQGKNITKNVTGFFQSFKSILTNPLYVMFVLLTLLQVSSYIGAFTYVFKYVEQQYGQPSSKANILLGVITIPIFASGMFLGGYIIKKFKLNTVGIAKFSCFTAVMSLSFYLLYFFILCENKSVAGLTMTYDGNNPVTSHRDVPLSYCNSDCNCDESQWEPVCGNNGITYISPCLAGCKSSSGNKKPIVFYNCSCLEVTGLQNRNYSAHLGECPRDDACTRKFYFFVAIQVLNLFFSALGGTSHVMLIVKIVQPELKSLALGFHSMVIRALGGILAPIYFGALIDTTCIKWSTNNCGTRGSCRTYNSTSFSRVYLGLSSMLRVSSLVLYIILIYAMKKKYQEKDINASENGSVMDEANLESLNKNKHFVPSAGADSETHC

[6] = molecular target: T6, Solute carrier organic anion transporter family member 1A2 (Homo sapiens, UniProt P46721); assay: Inhibitors of transporters of clinical importance in the absorption and disposition of drugs, OATP1A2
T6 sequence (P46721 whole entry): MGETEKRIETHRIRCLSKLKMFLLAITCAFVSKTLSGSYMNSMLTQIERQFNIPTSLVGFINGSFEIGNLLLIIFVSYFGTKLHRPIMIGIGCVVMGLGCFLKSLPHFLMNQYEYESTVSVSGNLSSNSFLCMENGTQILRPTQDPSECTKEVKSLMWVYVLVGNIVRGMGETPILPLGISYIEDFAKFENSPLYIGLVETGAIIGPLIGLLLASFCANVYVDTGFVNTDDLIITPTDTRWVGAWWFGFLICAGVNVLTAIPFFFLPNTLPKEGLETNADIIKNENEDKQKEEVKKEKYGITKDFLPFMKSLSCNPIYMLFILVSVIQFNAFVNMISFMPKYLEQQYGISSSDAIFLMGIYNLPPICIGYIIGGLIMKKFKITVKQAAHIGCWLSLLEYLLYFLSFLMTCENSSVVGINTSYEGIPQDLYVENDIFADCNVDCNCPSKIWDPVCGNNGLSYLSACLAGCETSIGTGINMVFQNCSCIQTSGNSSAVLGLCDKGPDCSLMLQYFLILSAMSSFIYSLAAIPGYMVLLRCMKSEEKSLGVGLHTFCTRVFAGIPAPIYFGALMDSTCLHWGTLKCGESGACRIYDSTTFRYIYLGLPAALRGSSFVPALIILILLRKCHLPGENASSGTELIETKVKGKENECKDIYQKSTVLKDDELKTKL

[7] = molecular target: ATP-binding cassette sub-family C member 3 (Homo sapiens, UniProt O15438); assay: Inhibitors of transporters of clinical importance in the absorption and disposition of drugs, MPR3
Chain of ATP-binding cassette sub-family C member 3 (O15438 whole entry): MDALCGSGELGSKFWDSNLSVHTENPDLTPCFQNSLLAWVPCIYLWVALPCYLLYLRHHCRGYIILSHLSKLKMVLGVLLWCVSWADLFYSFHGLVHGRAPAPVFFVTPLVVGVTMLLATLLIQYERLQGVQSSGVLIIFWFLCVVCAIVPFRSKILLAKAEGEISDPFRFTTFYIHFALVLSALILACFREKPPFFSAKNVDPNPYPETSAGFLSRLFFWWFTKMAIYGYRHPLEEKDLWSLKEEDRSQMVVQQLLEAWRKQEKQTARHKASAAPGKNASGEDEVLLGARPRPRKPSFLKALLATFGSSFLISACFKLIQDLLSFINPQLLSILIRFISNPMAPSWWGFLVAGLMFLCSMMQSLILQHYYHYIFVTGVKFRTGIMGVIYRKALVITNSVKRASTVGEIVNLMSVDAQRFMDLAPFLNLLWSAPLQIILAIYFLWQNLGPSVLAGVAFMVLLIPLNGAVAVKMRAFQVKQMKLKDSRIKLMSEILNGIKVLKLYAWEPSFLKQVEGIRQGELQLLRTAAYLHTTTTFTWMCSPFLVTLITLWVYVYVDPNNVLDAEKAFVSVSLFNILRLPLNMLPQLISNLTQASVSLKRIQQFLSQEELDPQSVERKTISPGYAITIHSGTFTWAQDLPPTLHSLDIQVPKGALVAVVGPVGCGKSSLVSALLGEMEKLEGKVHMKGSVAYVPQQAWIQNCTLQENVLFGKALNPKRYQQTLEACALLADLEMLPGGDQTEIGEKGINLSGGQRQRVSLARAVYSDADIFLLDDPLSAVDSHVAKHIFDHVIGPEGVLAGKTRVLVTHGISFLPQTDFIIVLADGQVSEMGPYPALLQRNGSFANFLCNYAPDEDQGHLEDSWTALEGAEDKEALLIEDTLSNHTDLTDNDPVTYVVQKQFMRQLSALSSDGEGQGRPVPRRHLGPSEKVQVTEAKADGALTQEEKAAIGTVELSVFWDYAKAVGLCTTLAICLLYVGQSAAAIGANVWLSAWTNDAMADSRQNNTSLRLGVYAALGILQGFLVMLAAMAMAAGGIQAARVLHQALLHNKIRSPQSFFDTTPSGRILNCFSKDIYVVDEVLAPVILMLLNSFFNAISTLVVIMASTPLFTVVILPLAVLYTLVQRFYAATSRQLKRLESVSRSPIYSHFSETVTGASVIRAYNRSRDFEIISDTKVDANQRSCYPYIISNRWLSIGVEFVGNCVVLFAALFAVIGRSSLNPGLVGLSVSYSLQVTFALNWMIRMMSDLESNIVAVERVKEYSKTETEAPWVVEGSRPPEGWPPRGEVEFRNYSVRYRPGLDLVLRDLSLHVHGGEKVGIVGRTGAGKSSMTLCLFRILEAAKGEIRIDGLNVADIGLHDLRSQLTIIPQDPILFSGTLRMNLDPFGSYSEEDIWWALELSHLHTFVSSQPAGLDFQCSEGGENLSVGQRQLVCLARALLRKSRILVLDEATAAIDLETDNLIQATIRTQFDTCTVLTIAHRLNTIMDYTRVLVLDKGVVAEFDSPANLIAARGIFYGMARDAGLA

[8] = molecular target: ATP-binding cassette sub-family C member 2 (Homo sapiens, UniProt Q92887); assay: Inhibitors of transporters of clinical importance in the absorption and disposition of drugs, MRP2
Chain of ATP-binding cassette sub-family C member 2 (Q92887 whole entry): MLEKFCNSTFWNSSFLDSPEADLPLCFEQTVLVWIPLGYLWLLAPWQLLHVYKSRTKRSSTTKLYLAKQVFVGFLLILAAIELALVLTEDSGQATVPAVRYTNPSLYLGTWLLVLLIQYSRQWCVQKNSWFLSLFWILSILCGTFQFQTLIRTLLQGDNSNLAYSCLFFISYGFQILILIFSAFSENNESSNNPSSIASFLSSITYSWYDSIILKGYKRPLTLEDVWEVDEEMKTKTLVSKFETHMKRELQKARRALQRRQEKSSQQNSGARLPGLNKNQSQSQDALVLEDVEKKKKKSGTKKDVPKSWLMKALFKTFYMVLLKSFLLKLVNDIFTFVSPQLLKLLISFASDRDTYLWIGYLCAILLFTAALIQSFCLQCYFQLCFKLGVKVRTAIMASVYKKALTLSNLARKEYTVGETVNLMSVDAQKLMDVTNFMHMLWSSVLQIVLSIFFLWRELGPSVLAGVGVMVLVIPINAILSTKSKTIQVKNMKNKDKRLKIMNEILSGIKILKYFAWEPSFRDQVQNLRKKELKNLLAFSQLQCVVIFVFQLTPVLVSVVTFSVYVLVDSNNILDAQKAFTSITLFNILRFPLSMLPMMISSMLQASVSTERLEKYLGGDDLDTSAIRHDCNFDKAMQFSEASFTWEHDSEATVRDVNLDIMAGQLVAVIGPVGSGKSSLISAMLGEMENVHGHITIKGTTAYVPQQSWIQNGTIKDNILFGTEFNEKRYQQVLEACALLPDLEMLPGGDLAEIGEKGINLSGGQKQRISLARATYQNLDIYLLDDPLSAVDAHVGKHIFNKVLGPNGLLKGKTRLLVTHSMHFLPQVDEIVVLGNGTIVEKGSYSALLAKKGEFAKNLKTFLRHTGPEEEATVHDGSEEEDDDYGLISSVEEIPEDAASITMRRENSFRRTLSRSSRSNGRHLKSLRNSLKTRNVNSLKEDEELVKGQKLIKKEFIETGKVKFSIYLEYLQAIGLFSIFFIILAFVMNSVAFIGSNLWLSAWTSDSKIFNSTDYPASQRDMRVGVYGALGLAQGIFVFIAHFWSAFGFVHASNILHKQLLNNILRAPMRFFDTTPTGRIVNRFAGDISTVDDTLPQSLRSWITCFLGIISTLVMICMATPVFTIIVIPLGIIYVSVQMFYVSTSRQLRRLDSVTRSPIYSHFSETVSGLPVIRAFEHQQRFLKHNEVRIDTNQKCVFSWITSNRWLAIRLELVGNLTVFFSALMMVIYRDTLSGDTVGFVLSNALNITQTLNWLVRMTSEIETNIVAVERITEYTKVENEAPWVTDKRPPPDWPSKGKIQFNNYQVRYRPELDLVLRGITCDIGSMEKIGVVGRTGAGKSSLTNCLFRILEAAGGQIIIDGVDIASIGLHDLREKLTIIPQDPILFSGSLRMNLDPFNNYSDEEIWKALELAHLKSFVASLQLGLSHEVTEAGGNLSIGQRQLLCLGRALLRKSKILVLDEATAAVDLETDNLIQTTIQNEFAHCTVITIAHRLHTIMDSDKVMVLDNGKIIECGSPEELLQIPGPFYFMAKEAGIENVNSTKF

[9] = molecular target: T7, Solute carrier family 22 member 6 (Homo sapiens, UniProt Q4U2R8); assay: Inhibitors of transporters of clinical importance in the absorption and disposition of drugs, OAT1
T7 sequence (Q4U2R8 whole entry): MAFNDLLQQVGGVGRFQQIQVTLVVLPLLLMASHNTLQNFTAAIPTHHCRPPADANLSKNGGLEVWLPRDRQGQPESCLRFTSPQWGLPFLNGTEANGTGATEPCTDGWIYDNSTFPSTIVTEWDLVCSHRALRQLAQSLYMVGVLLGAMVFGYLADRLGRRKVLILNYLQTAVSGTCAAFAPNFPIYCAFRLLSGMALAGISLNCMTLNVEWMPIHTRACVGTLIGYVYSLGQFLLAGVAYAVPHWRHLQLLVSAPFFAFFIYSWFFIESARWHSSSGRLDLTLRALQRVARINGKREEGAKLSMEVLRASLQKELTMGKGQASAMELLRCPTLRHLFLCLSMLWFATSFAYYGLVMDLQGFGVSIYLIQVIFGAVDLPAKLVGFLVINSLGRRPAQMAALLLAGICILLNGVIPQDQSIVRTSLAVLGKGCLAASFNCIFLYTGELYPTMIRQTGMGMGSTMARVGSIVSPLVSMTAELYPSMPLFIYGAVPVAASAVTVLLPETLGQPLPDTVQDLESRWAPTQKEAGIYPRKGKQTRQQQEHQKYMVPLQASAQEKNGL

For `CCC(=O)O[C@@H](O[P@](=O)(CCCCc1ccccc1)CC(=O)N1C[C@H](C2CCCCC2)C[C@H]1C(=O)O)C(C)C` [FOSINOPRIL], the Activity [1] was “transporter inhibitor”.
For `O=C(O)Cc1ccccc1Nc1c(Cl)cccc1Cl` [DICLOFENAC], the Activity [2] was “transporter inhibitor”.
In the case of `CCCN(CCC)S(=O)(=O)c1ccc(C(=O)O)cc1` [PROBENECID], the Activity [3] was “transporter inhibitor”.
`Cc1ccc(-c2cc(C(F)(F)F)nn2-c2ccc(S(N)(=O)=O)cc2)cc1` [CELECOXIB] was tested, and the Activity [2] was “transporter inhibitor”.
`C[C@H](CSC(=O)c1ccccc1)C(=O)N1C[C@@H](Sc2ccccc2)C[C@H]1C(=O)O` [ZOFENOPRIL] was tested, and the Activity [1] was “transporter inhibitor”.
With `Cc1cccc(C)c1OCC(=O)N[C@@H](Cc1ccccc1)[C@@H](O)C[C@H](Cc1ccccc1)NC(=O)[C@H](C(C)C)N1CCCNC1=O` [LOPINAVIR] the Activity [4] was “transporter inhibitor”, the Activity [5] was “transporter inhibitor” and the Activity [6] was “transporter inhibitor”.
For `CC(C)Nc1cccnc1N1CCN(C(=O)c2cc3cc(NS(C)(=O)=O)ccc3[nH]2)CC1` [DELAVIRDINE], the Activity [7] was “transporter inhibitor” and the Activity [8] was “transporter inhibitor”.
In the case of `CO[C@@H]1[C@@H](OC(N)=O)[C@@H](O)[C@H](Oc2ccc3c(O)c(NC(=O)c4ccc(O)c(CC=C(C)C)c4)c(=O)oc3c2C)OC1(C)C` [NOVOBIOCIN], the Activity [3] was “transporter inhibitor” and the Activity [9] was “transporter inhibitor”.
